Measurements published in US11110067B2 (THE BOARD OF REGENTS OF THE UNIVERSITY OF TEXAS SYSTEM, priority 2008, dated 2021).

Assays:
[1] = system: genetically heterogeneous mice; test: Lifespan of mice fed test agents in the diet (Cohort 2005; rapamycin from 600 days of age); conditions: for Survival compared with controls: added to the diet at 4 months of age, enalapril 120 mg/kg food, CAPE 30 or 300 mg/kg food; for Effect size expressed as life expectancy at 600 days / Effect size expressed as mean lifespan: pooled data set
From the text: Mice were produced at each of the three test sites by mating CB6F1 females with C3D2F1 males to produce a genetically heterogeneous population. […] Each test site enrolled approximately equal numbers of 19-21 day-old weanlings each month over a six month period, housing 3 males or 4 females/cage. Each site used diets that the manufacturer claimed were based on the NIH-31 standard for breeding cages and the period between weaning and the initiation of experimental diets, as follows: For breeding cages, UM used Purina 5008, UT used Teklad 7912, and TJL used Purina 5K52. For weanlings prior to 4 months of age, UM used Purina 5008, UT used Teklad 7912, and TJL used Purina 5LG6. Starting when 4 months old, mice in the Control, Enalapril, and CAPE groups received Purina 5LG6 at all three sites, without additives (control group) or with the test agent. […] The principal endpoint was age at death (for mice found dead at daily inspections) or age at euthanasia (for mice deemed unlikely to survive for more than an additional 48 h).
The Cohort 2005 study population, distributed almost equally among the three test sites, consisted initially of 1960 mice, of which 674 were assigned to the control group and 317 to 328 to each of the four treatment groups. Of these, 51 mice were removed from the study because of fighting (31 mice), accidental death (such as chip implantation or cage flooding; 13 mice), or because of technical error (error in gender assignment or diet selection; 7 mice). For survival analyses, mice were treated as alive at the date of their removal from the protocol, and lost to follow-up thereafter. These censored mice were not included in calculations of median longevity.
Mice were examined at least daily for signs of ill health, and were euthanized for humane reasons if they were so severely moribund that they were considered, by an experienced technician, unlikely to survive for more than an additional 48 hrs. […] The age at which a moribund mouse was euthanized was taken as the best available estimate of its natural lifespan. Mice found dead were also noted at each daily inspection.
TestDiet, Inc. (Richmond, Ind.) prepared batches of Purina 5LG6 food containing each of the test substances, as well as control diet batches, at intervals of approximately 120 days, and shipped each batch of food at the same time to each of the three test sites. Enalapril was purchased from Sigma (catalogue E6888-5G) and used at 120 mg per kg food; on the assumption that the average mouse weighs 30 gm and consumes 5 gm of food/day, this dose supplies 20 mg enalapril per kg body weight/day. CAPE, i.e. caffeic acid phenethyl ester, was purchased from Cayman (Ann Arbor, Mich.; Catalogue 70750), and used at either of two doses: the high dose was 300 mg/kg food (50 mg/kg body weight/day), and the low dose was 30 mg/kg food (5 mg/kg body weight/day).

[2] = system: Aβ / APP in brains of hAPP(J20) mice; test: APP Western blots and Aβ ELISA in brain, hAPP(J20) mice; assay type: in vivo, mouse
Procedure: (§1) Tissue was processed and analyzed as described previously 13, 25, 26 and is described in detail in Supplementary Information. Aβ and tau were measured using specific ELISAs.
(§2) 3×Tg-AD mice were sacrificed by CO2 asphyxiation. The brains were extracted and cut in-half sagitally and tissue was processed as described (Oddo et al., 2008). The hAPP(J20) mice were euthanized by isoflurane overdose. Hemibrains were flash frozen. One hemibrain was homogeneized in liquid N2 while the other was used in immunohistochemical determinations. For Western blot analyses, proteins from both hAPP(J20) and 3×Tg-AD soluble fractions were resolved by SDS/PAGE (Invitrogen, Temecula, Calif.) under reducing conditions and transferred to a nitrocellulose or PVDF membrane. The membrane was incubated in a 5% solution of non-fat milk or in 5% BSA for 1 hour at 20° C. […] Aβ40 and Aβ42 levels were measured from the soluble and insoluble fractions using a sandwich ELISA protocol as described previously (Oddo et al., 2005). Aβ40 and Aβ42 in hAPP(J20) mice were quantitated in guanidine homogenates of Tg hAPP(J20) hemibrains as described (Galvan et al., 2006) using specific ELISA assays (Invitrogen, Carlsbad, Calif.).

[3] = Body weight of rapamycin-fed mice; assay type: in vivo, mouse
[4] = Pong and Zaleska, 2003; cited from earlier work
HET3 mice = test: Glucose tolerance on high fat diet; assay type: in vivo, mouse; conditions: HET3 mice fed a high fat diet
[5] = system: Aβ / APP in brains of 3×Tg-AD mice; test: APP Western blots, Aβ ELISA and immunohistochemistry in brain, 3xTg-AD mice; assay type: in vivo, mouse; conditions: ELISA
Procedure: as §1
as §2, with “Calif.). […]” for “Calif.).”

[6] = system: phosphorylation of ribosomal protein S6 (Ser240/244), a substrate of S6 kinase 1; test: Immunoblot of rpS6 phosphorylation in tissue lysates; assay type: in vivo, mouse; conditions: visceral white adipose tissue; fed from 270 to about 800 days of age
Procedure: Signal intensities for each immunoblot were captured using a Kodak Image Station, which were analysed using Kodak 1D image analysis software.

Question: Which “Survival compared with controls” value [1] does the source give for `O=C(/C=C/c1ccc(O)c(O)c1)OCCc1ccccc1` [CAPE, caffeic acid phenethyl ester] here?
Answer: Its value is “did not differ from controls”.

Question: With `CCOC(=O)[C@H](CCc1ccccc1)N[C@@H](C)C(=O)N1CCC[C@H]1C(=O)O` [enalapril] as the compound, how does the “Survival compared with controls” value [1] read?
Answer: Its value is “did not differ from controls”.

Question: For `CO[C@H]1C[C@@H]2CC[C@@H](C)[C@@](O)(O2)C(=O)C(=O)N2CCCC[C@H]2C(=O)O[C@H]([C@H](C)C[C@@H]2CC[C@@H](O)[C@H](OC)C2)CC(=O)[C@H](C)/C=C(\C)[C@@H](O)[C@@H](OC)C(=O)[C@H](C)C[C@H](C)/C=C/C=C/C=C/1C` [rapamycin, (3S,6R,7E,9R,10R,12R,14S,15E,17E,19E,21S,23S,26R,27R,34aS)-9,10,12,13,14,21,22,23,24,25,26,27,32,33,34,34a-hexadecahydro-9,27-dihydroxy-3-[(1R)-2-[(1S,3R,4R)-4-hydroxy-3-methoxycyclohexyl]-1-methylethyl]-10,21-dimethoxy-6,8,12,14,20,26-hexamethyl-23,27-epoxy-3H-pyrido[2,1-c][1,4]oxaazacyclohentria-contine-1,5,11,28,29 (4H,6H,31H)-pentone], which “Decrease of soluble Aβ42 levels” value [2] is on record?
Answer: The value was 52.35±13.14%.

Question: And the Body weight ([3]; high fat diet, 12 weeks of feeding)?
Answer: The Body weight was “No difference”.

Question: What about the Body weight ([3]; mouse, in vivo) of the same compound?
Answer: Its Body weight is “No effect”.

Question: And the “Blood brain barrier passage” value [4]?
Answer: Its value is “readily crosses the blood brain barrier”.

Question: What about the Glucose tolerance (HET3 mice) of the same compound?
Answer: The Glucose tolerance was “causes glucose intolerance”.

Question: What about the “Increase of life expectancy at 600 days” value ([1]; females, TJL) of the same compound?
Answer: Its value is 45%.

Question: And the Mean lifespan increase ([1]; females, TJL)?
Answer: Its Mean lifespan increase is 15%.

Question: What about the “Percentage increase of age at 90th percentile versus controls” value (“Percentage increase of age” below) ([1]; females, TJL) of the same compound?
Answer: Its value is 17%.

Question: And the “% Live at the 90th percentile age of the joint distribution” value (“% Live at the 90th percentile age” below) ([1]; females, TJL, age 1167 days)?
Answer: The value was 22.9%.

Question: What about the “Number alive at the 90th percentile age” value ([1]; females, TJL, age 1167 days) of the same compound?
Answer: Its value is 11.

Question: And the “Number dead at the 90th percentile age” value ([1]; females, TJL, age 1167 days)?
Answer: The value was 37.

Question: And the “Increase of life expectancy at 600 days” value ([1]; females, UM)?
Answer: The value was 48%.

Question: What about the Mean lifespan increase ([1]; females, UM) of the same compound?
Answer: Its Mean lifespan increase is 16%.

Question: And the “Percentage increase of age” value ([1]; females, UM)?
Answer: The value was 14%.

Question: And the “% Live at the 90th percentile age” value ([1]; females, UM, age 1162 days)?
Answer: Its value is 27.1%.

Question: What about the “Number alive at the 90th percentile age” value ([1]; females, UM, age 1162 days) of the same compound?
Answer: Its value is 13.

Question: What about the “Number dead at the 90th percentile age” value ([1]; females, UM, age 1162 days) of the same compound?
Answer: Its value is 35.

Question: And the “Increase of life expectancy at 600 days” value ([1]; females, UT)?
Answer: The value was 22%.

Question: What about the Mean lifespan increase ([1]; females, UT) of the same compound?
Answer: Its Mean lifespan increase is 7%.

Question: What about the “Percentage increase of age” value ([1]; females, UT) of the same compound?
Answer: The value was 8%.

Question: And the “% Live at the 90th percentile age” value ([1]; females, UT, age 1123 days)?
Answer: Its value is 14.6%.

Question: And the “Number alive at the 90th percentile age” value ([1]; females, UT, age 1123 days)?
Answer: Its value is 7.

Question: And the “Number dead at the 90th percentile age” value ([1]; females, UT, age 1123 days)?
Answer: Its value is 41.

Question: What about the “Percentage increase of age” value ([1]; females, all sites) of the same compound?
Answer: The value was 14%.

Question: What about the “Effect size expressed as life expectancy at 600 days” value ([1]; females) of the same compound?
Answer: The value was 38%.

Question: What about the “Effect size expressed as mean lifespan” value ([1]; females) of the same compound?
Answer: The value was 13%.

Question: What about the “% Live at the 90th percentile age” value ([1]; females, pooled sites) of the same compound?
Answer: Its value is 21.5%.

Question: And the “Number alive at the 90th percentile age” value ([1]; females, pooled sites)?
Answer: The value was 31.

Question: And the “Number dead at the 90th percentile age” value ([1]; females, pooled sites)?
Answer: The value was 113.

Question: And the “% Live at the 90th percentile age” value ([1]; females, pooled sites, listed as Rapa)?
Answer: The value was 21.5%.

Question: And the “Increase of life expectancy at 600 days” value ([1]; males, TJL)?
Answer: Its value is 16%.

Question: What about the Mean lifespan increase ([1]; males, TJL) of the same compound?
Answer: Its Mean lifespan increase is 5%.

Question: What about the “Percentage increase of age” value ([1]; males, TJL) of the same compound?
Answer: The value was 10%.

Question: And the “% Live at the 90th percentile age” value ([1]; males, TJL, age 1088 days)?
Answer: The value was 19.3%.

Question: And the “Number alive at the 90th percentile age” value ([1]; males, TJL, age 1088 days)?
Answer: The value was 11.

Question: And the “Number dead at the 90th percentile age” value ([1]; males, TJL, age 1088 days)?
Answer: Its value is 46.

Question: And the “Increase of life expectancy at 600 days” value ([1]; males, UM)?
Answer: The value was 23%.

Question: What about the Mean lifespan increase ([1]; males, UM) of the same compound?
Answer: The Mean lifespan increase was 8%.

Question: And the “Percentage increase of age” value ([1]; males, UM)?
Answer: Its value is 4%.

Question: And the “% Live at the 90th percentile age” value ([1]; males, UM, age 1154 days)?
Answer: Its value is 17.6%.

Question: And the “Number alive at the 90th percentile age” value ([1]; males, UM, age 1154 days)?
Answer: Its value is 9.

Question: What about the “Number dead at the 90th percentile age” value ([1]; males, UM, age 1154 days) of the same compound?
Answer: The value was 42.

Question: What about the “Increase of life expectancy at 600 days” value ([1]; males, UT) of the same compound?
Answer: Its value is 52%.

Question: What about the Mean lifespan increase ([1]; males, UT) of the same compound?
Answer: Its Mean lifespan increase is 15%.

Question: What about the “Percentage increase of age” value ([1]; males, UT) of the same compound?
Answer: The value was 16%.

Question: And the “% Live at the 90th percentile age” value ([1]; males, UT, age 1112 days)?
Answer: Its value is 23.3%.

Question: What about the “Number alive at the 90th percentile age” value ([1]; males, UT, age 1112 days) of the same compound?
Answer: The value was 14.

Question: And the “Number dead at the 90th percentile age” value ([1]; males, UT, age 1112 days)?
Answer: The value was 48.

Question: What about the “Percentage increase of age” value ([1]; males, all sites) of the same compound?
Answer: Its value is 9%.

Question: What about the “Effect size expressed as life expectancy at 600 days” value ([1]; males) of the same compound?
Answer: The value was 28%.

Question: What about the “Effect size expressed as mean lifespan” value ([1]; males) of the same compound?
Answer: The value was 9%.

Question: And the “% Live at the 90th percentile age” value ([1]; males, pooled sites)?
Answer: The value was 20.2%.

Question: What about the “Number alive at the 90th percentile age” value ([1]; males, pooled sites) of the same compound?
Answer: Its value is 34.

Question: What about the “Number dead at the 90th percentile age” value ([1]; males, pooled sites) of the same compound?
Answer: The value was 134.

Question: What about the “% Live at the 90th percentile age” value ([1]; males, pooled sites, listed as Rapa) of the same compound?
Answer: Its value is 20.2%.

Question: What about the “Decrease of soluble Aβ42 levels” value [5] of the same compound?
Answer: The value was 32.78±6.68%.

Question: And the “Reduction of levels of phosphorylated rpS6” value [6]?
Answer: Its value is 4-5 fold.
